Reference: PubChem BioAssay (NCI)
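Each compound was tested at five concentrations against cells in 96-well plates for 48 hours. TGI: total growth inhibition.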

How the values were obtained:
Test in all cases: DTP human tumour cell line panel, 48 h
[1] = system: 786-0 renal
[2] = system: U251 CNS
[3] = system: NCI-H460 lung
[4] = system: NCI-H522 lung
[5] = system: IGROV1 ovarian
[6] = system: SNB-19 CNS
[7] = system: HOP-62 NSCLC
[8] = system: LXFL 529 NSCLC
[9] = system: SK-OV-3 ovarian
[10] = system: HCT-116 colon
[11] = system: PC-3 prostate
[12] = system: MDA-MB-435
[13] = system: TK-10 renal
[14] = system: DU-145 prostate
[15] = system: RXF 393 renal
[16] = system: K-562 leukemia
[17] = system: HCT-15 colon
[18] = system: SK-MEL-28 melanoma
[19] = system: UO-31 renal
[20] = system: MDA-N
[21] = system: NCI/ADR-RES ovarian
[22] = system: SR leukemia
[23] = system: A549 NSCLC
[24] = system: T-47D breast
[25] = system: RPMI-8226 leukemia
[26] = system: M19-MEL melanoma
[27] = system: UACC-62 melanoma
[28] = system: SN12C renal
[29] = system: CCRF-CEM leukemia
[30] = system: M14 melanoma
[31] = system: MOLT-4 leukemia
[32] = system: SNB-75 CNS
[33] = system: LOX IMVI melanoma
[34] = system: OVCAR-8 ovarian
[35] = system: MALME-3M melanoma
[36] = system: OVCAR-3 ovarian
[37] = system: SF-539 CNS
[38] = system: SNB-78 CNS
[39] = system: DMS 114 small cell lung
[40] = system: NCI-H23 lung
[41] = system: HOP-18 NSCLC
[42] = system: MDA-MB-231 breast
[43] = system: HOP-92 NSCLC
[44] = system: A498 renal
[45] = system: KM20L2 colon
[46] = system: UACC-257 melanoma
[47] = system: BT-549 breast
[48] = system: HCC-2998 colon
[49] = system: DMS 273 small cell lung
[50] = system: SF-295 CNS
[51] = system: SK-MEL-5 melanoma
[52] = system: SK-MEL-2 melanoma
[53] = system: COLO 205 colon
[54] = system: HL-60(TB) leukemia
[55] = system: SF-268 CNS
[56] = system: HT29 colon
[57] = system: DLD-1 colon
[58] = system: CAKI-1 renal
[59] = system: MCF7 breast
[60] = system: NCI-H226 lung
[61] = system: KM12 colon
[62] = system: HS 578T breast
[63] = system: OVCAR-5 ovarian
[64] = system: SW-620 colon
[65] = system: ACHN renal
[66] = system: EKVX NSCLC

## CC1CSC(=S)N1C(=O)N1C(=S)SCC1C (stereo unspecified)
[1]
  TGI: 53.6 µM
[2]
  TGI: 53.5 µM
[3]
  TGI: 59 µM
[4]
  TGI: 26.7 µM
[5]
  TGI: 53.3 µM
[6]
  TGI: > 100 µM
[7]
  TGI: > 82.8 µM
[8]
  TGI: > 100 µM
[9]
  TGI: > 100 µM
[10]
  TGI: 42.9 µM
[11]
  TGI: 67.2 µM
[12]
  TGI: 46.6 µM
[13]
  TGI: 74.8 µM
[14]
  TGI: 45.2 µM
[15]
  TGI: 38.6 µM
[16]
  TGI: 60.9 µM
[17]
  TGI: 34.8 µM
[18]
  TGI: 41.9 µM
[19]
  TGI: 58.7 µM
[20]
  TGI: 50.7 µM
[21]
  TGI: 41.7 µM
[22]
  TGI: 59.3 µM
[23]
  TGI: 91.8 µM
[24]
  TGI: > 100 µM
[25]
  TGI: 66.2 µM
[26]
  TGI: 81.7 µM
[27]
  TGI: 27.4 µM
[28]
  TGI: 54.4 µM
[29]
  TGI: 48.5 µM
[30]
  TGI: 53.9 µM
[31]
  TGI: 81.9 µM
[32]
  TGI: 88.1 µM
[33]
  TGI: 36.4 µM
[34]
  TGI: 32.3 µM
[35]
  TGI: 45.2 µM
[36]
  TGI: 82.3 µM
[37]
  TGI: 41.4 µM
[38]
  TGI: > 100 µM
[39]
  TGI: > 100 µM
[40]
  TGI: 43.1 µM
[41]
  TGI: > 100 µM
[42]
  TGI: 64.8 µM
[43]
  TGI: 73 µM
[44]
  TGI: 60.7 µM
[45]
  TGI: > 100 µM
[46]
  TGI: 43.4 µM
[47]
  TGI: 63.9 µM
[48]
  TGI: > 80.5 µM
[49]
  TGI: 49.5 µM
[50]
  TGI: 98.1 µM
[51]
  TGI: 34.8 µM
[52]
  TGI: 53.2 µM
[53]
  TGI: 37.2 µM
[54]
  TGI: 88.3 µM
[55]
  TGI: 74.6 µM
[56]
  TGI: 73 µM
[57]
  TGI: 44.4 µM
[58]
  TGI: 61.7 µM
[59]
  TGI: 60.5 µM
[60]
  TGI: 71.7 µM
[61]
  TGI: 84.9 µM
[62]
  TGI: > 82.9 µM
[63]
  TGI: 64.7 µM
[64]
  TGI: 49.4 µM
[65]
  TGI: 36.1 µM
[66]
  TGI: 63.4 µM
